This test deals with DNBS-induced colitis. Kind of test: DNBS-induced colitis in rats, macroscopic damage score. Format: in vivo, rat. Conditions: Sprague-Dawley rats, intrarectal DNBS on day 2, DNBS group score 10.7±0.4. On the procedure: Albino male Sprague-Dawley rats, 200-250 g body weight, were treated with intrarectal DNBS (2,4-dinitrobenzensufonic acid, 30 mg in 0.25 ml of 50% ethanol) under a light anaesthesia with diethyl ether. In control experiments, the animals received 0.25 ml of saline (NaCl 0.9%). Animals were subjected to subsequent experimental procedures 6 days after induction of colitis with DNBS (Blandizzi et al., Altered prejunctional modulation of intestinal cholinergic and noradrenergic pathways by alpha-2-adrenoceptors in the presence of experimental colitis. Br J Pharmacol 139, 309-320, 2003). […]
At the end of treatments, animals were sacrificed and the severity of colonic inflammation was macroscopically evaluated in accordance with the criteria previously reported by Wallace and Keenan (Wallace J L and Keenan C M, An orally active inhibitor of leukotriene synthesis accelerates healing in a rat model of colitis. Am J Physiol, 258, G527-G534, 1990) with minor modifications (Blandizzi, et al., 2003). Briefly, the macroscopic evaluation is based on the following criteria: presence of adhesions between the colon and other intra-abdominal organs; consistency of colonic faecal material (as an indirect marker of diarrhea); thickening of the colonic wall; presence and extension of hyperemia and macroscopic mucosal damage (assessed with the aid of a ruler) (FIG. 2). […]

We go through 1 compound from patent US20080249034A1, “Use of Macrolides for Treating Intestinal Inflammation” (ZAMBON S.P.A., priority 2005, published 2008).

Turning to `CC[C@H]1OC(=O)[C@H](C)[C@@H](O)[C@H](C)[C@@H](O[C@@H]2O[C@H](C)C[C@H](N(C)C(C)=O)[C@H]2O)C(C)(O)C[C@@H](C)[C@H](O)[C@H](C)[C@@H](O)[C@]1(C)O` (some centres unmarked) [macrolide], the “anti-inflammatory effect (change of macroscopic damage score)” value (100 μmol/kg/day by intragastric gavage for 7 days) is −24% and the “anti-inflammatory effect (change of macroscopic damage score)” value (300 μmol/kg/day by intragastric gavage for 7 days) is reported as −51%.
